For this test, the target named is T1, sGC α1/β1 heterodimer stably expressed in CHO-K1 cells (CHO-K1/sGC) (Homo sapiens, UniProt Q02108+Q02153).
T1 construct: expressed in transfected cells
T1 sequence (Q02108 1-690): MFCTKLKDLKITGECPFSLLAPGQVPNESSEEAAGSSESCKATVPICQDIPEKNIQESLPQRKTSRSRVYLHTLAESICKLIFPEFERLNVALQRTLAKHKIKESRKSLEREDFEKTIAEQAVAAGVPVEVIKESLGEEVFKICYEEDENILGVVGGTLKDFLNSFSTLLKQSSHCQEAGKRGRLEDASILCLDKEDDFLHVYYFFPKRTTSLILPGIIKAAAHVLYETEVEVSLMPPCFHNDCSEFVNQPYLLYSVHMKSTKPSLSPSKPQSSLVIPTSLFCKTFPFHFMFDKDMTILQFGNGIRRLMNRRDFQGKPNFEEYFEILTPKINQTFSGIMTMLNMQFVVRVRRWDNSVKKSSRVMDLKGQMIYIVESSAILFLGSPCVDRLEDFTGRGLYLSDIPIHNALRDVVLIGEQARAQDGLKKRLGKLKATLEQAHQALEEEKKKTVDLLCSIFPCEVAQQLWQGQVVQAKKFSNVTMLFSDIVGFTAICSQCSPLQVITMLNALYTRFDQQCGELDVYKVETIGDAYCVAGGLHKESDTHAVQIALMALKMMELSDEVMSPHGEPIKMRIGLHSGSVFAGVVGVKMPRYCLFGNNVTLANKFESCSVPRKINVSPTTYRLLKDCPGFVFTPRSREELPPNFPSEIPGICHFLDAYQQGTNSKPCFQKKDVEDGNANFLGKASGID
T1 sequence (Q02153 1-619): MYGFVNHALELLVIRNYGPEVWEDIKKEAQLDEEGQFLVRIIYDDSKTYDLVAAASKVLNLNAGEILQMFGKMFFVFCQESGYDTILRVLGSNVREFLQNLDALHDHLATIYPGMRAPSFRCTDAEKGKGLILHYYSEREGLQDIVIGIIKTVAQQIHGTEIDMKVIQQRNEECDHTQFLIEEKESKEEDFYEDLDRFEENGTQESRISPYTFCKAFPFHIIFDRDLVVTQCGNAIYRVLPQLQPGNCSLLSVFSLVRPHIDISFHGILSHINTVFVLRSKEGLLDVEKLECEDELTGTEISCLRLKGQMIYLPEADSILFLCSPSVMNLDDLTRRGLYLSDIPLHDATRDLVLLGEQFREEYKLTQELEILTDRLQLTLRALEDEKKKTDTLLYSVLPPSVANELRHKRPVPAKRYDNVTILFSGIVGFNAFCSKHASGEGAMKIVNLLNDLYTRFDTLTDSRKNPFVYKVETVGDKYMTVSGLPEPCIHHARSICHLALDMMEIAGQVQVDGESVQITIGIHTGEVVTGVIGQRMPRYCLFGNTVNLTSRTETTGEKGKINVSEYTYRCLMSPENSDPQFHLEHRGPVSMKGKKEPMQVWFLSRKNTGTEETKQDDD
As to the kind of experiment: Cell-based sGC functional assay (CASA assay), cGMP generation by HTRF. The note with it: for Emax: CHO-K1, maximum cGMP production of Compound A set to 100% activation, read-out: % Act. (percent activation relative to Compound A); for EC50: CHO-K1/sGC cells, 1 hr at 37° C., 4P fit, presence or absence of DETA-NO not given, read-out: IP (nM) (inflection point); for % Act. (percent activation relative to Compound A): maximum cGMP production of Compound A set to 100% activation. From the text:
Biological Assay 1: Cell-Based sGC Functional Assay (CASA Assay) Rationale
sGC is a heme-containing enzyme that converts GTP to secondary messenger cGMP. Increases in cGMP levels affect several physiological processes including vasorelaxation through multiple downstream pathways. […] Heme-dependent activators (HDAs) preferentially activate sGC containing a ferrous heme group. To determine the effect of sGC activators on enzyme activity, the CASA assay was developed to monitor the generation of cGMP in a cell line that stably expresses the heterodimeric sGC protein.
A CHO-K1 cell line stably expressing the sGC α1/β1 heterodimer was generated using a standard transfection protocol. CHO-K1 cells were transfected with plasmids pIREShyghsGCα1 and pIRESneo-hsGCβ1 simultaneously using FUGENE reagent. Clones that stably express both subunits were selected with hygromycin and neomycin for ˜2 weeks. Clone #7 was chosen for the assay and was designated CHO-K1/sGC. CHO-K1/sGC cells were maintained in F-K12 medium containing 10% heat-inactivated Fetal Bovine Serum (FBS), 100 μg/mL penicillin/streptomycin, 0.5 mg/mL hygromycin and 0.25 mg/mL G418. The cells were then cryopreserved in LN2. On the day of the assay, cells were thawed and resuspended in EBSS Assay Buffer (Sigma, E3024) supplemented with 5 mM MgCl2, 10 mM HEPES (4-(2-hydroxyethyl)piperazine-1-ethanesulfonic acid) and 0.05% BSA (bovine serum albumin) (EAB) and cell density was then adjusted to 4×10^5/mL with EAB. IBMX (3-isobutyl-1-methylxanthin, 0.5 mM) was added to inhibit degradation of cGMP. Compounds were diluted from DMSO stock solutions and added to the assay at a final DMSO concentration of 2.5%. Cells were incubated with compounds in the presence and absence of 1 μM of Diethylenetriamine/nitric oxide adduct (DETA-NO; Sigma, 17018) for 1 hr at 37° C. At the end of the incubation period, the reaction was terminated and the cells were lysed with the detection reagents from Cisbio Kits. The level of intracellular cGMP was determined using an HTRF-based assay kit (CisBio, 62GM2PEC), which detects the displacement of a fluorescence labeled cGMP from its specific antibody. The cGMP produced by test compounds was directly compared to the maximum cGMP production (this value was set to equal 100% activation.) of the published sGC-HDA Compound A:
[drawing 101] (Example 1 in WO 2010/065275, published Jun. 10, 2010). The test compounds' activities were then expressed as a percentage of Compound A, the standard in every experiment. This percent activation was calculated either in the presence or absence of DETA-NO which was then plotted. IP and maximum fold induction was derived using ADA analysis software for 4P fit.
The compounds in the Examples of the instant invention had inflection points (IP) less than or equal to 10 μM and many had IPs less than or equal to about 1 μM.
(In general: TR-FRET usually uses a lanthanide donor and a delayed reading to cut background.)

Each structure is given as a SMILES string.

Turning to `CCCC(C)Oc1nc(-c2nc(N)c3c(n2)NC(=O)C3(C)c2ccc(F)cc2)cn2ccnc12` (racemic) [Example 65A, 4-amino-5-(4-fluorophenyl)-5-methyl-2-[8-(1-methyl-butoxy)imidazo [1,2-a]pyrazin-6-yl]-5,7-dihydro-6H-pyrrolo[2,3-d] pyrimidin-6-one], the Emax was found to be 101% and the EC50 came out at 461 nM.
As for `CC(CNc1nc(-c2nc(N)c3c(n2)NC(=O)C3(C)c2ccc(F)cc2)cn2ccnc12)C(F)(F)F` (racemic) [Example 70, 4-amino-5-(4-fluorophenyl)-5-methyl-2-{8-[(3,3,3-trifluoro-2-methylpropyl)amino]imidazo [1,2-a]pyrazin-6-yl}-5,7-dihydro-6H-pyrrolo[2,3-d] pyrimidin-6-one], the Emax stood at 89% and the EC50 came out at 291 nM.
With `CC1(c2ccc(Cl)cc2)C(=O)Nc2nc(-c3cn4ccnc4c(OCC4CCCOC4)n3)nc(N)c21` (single isomer, unassigned; fast eluting) [Example 66A, 4-amino-5-(4-chlorophenyl)-5-methyl-2-[8-(tetrahydro-2H-pyran-3-ylmethoxy)imidazo[1,2-a]pyrazin-6-yl]-5,7-dihydro-6H-pyrrolo [2,3-d] pyrimidin-6-one (fast eluting)], the EC50 turned out to be 1710 nM and the “% Act. (percent activation relative to Compound A)” value is listed as 115%.
As for `CC1(c2ccc(Cl)cc2)C(=O)Nc2nc(-c3cn4ccnc4c(OCC4CCCCO4)n3)nc(N)c21` (single isomer, unassigned; fast eluting) [Example 68A, 4-amino-5-(4-chlorophenyl)-5-methyl-2-[8-(tetrahydro-2H-pyran-2-ylmethoxy)imidazo[1,2-a]pyrazin-6-yl]-5,7-dihydro-6H-pyrrolo [2,3-d] pyrimidin-6-one (fast eluting)], the Emax amounted to 86% and the EC50 turned out to be 324 nM.
Consider `C[C@H](Oc1nc(-c2nc(N)c3c(n2)NC(=O)C3(C)c2ccc(Cl)cc2)cn2ccnc12)c1ccccc1` (single isomer, unassigned; fast eluting) [Example 69A], for which the Emax was determined as 103% and the EC50 was determined as 833 nM.
Take `CC1(c2ccc(Cl)cc2)C(=O)Nc2nc(-c3cn4ccnc4c(NCC4CCCCO4)n3)nc(N)c21` (single isomer, unassigned; fast eluting) [Example 71A, 4-amino-5-(4-chlorophenyl)-5-methyl-2-{8-[(tetrahydro-2H-pyran-2-ylmethyl)amino]imidazo [1,2-a]pyrazin-6-yl}-5,7-dihydro-6H-pyrrolo[2,3-d] pyrimidin-6-one (fast eluting)]: the Emax turned out to be 96% and the EC50 worked out at 175 nM.
In the case of `CC1(c2ccc(Cl)cc2)C(=O)Nc2nc(-c3cn4ccnc4c(NCC4CCCOC4)n3)nc(N)c21` (single isomer, unassigned; fast eluting) [Example 72A, 4-amino-5-(4-chlorophenyl)-5-methyl-2-{8-[(tetrahydro-2H-pyran-3-ylmethyl)amino]imidazo [1,2-a]pyrazin-6-yl}-5,7-dihydro-6H-pyrrolo[2,3-d] pyrimidin-6-one (fast eluting)], the Emax is 96% and the EC50 is 1080 nM.
Turning to `CC1(c2ccc(Cl)cc2)C(=O)Nc2nc(-c3cn4ccnc4c(OCC4CCCOC4)n3)nc(N)c21` (single isomer, unassigned; slow eluting) [Example 67B, 4-amino-5-(4-chlorophenyl)-5-methyl-2-[8-(tetrahydro-2H-pyran-3-ylmethoxy)imidazo[1,2-a]pyrazin-6-yl]-5,7-dihydro-6H-pyrrolo [2,3-d] pyrimidin-6-one (slow eluting)], the EC50 stood at 501 nM and the “% Act. (percent activation relative to Compound A)” value was found to be 94%.
